Assay results reported in US12459985B2, “G-protein-coupled receptor internal sensors” (THE REGENTS OF THE UNIVERSITY OF CALIFORNIA, priority 2016, dated 2025).

Molecular target: Beta2AR with a cpGFP integrated into the third intracellular loop (Homo sapiens, UniProt P07550)
Details: saturating conditions (1 μM drug)

Q: Which results are given for CNC[C@H](O)c1ccc(O)c(O)c1 [epinephrine]?
A: τ½ON (time constant of association): 17.1 s; τ½OFF (time constant of dissociation): 235.34 s
